We go through one molecule from US6773702B2, “Use of combretastatin A4 and its prodrugs as an immune enhancing therapy” (OXiGENE, Inc., priority 2000, dated 2004).

The assay has as its system colon carcinoma H1D2-WT cells. As to the kind of experiment: Intrahepatic growth of colon carcinoma H1D2-WT, tumor volume after 4 weeks (Table 2). In kind it is in vivo, rat. As to the method: Table 2 is a summary of intrahepatic growth of colon carcinoma H1D2-WT cells treated with low dose CA4P alone or in combination with immunomodulatory gene therapy, and with or without additional inhibitor. Tumor growth was initiated by inoculation beneath the liver capsule with 1×10^5 in vitro cultured BN7005-H1D2 wild type cells suspended in 50 μl RPMI medium. Drug administration (CA4P, L-NAME, Indomethacin) was initiated after 7-8 days when the tumor was macroscopically visible. CA4P was given intraperitoneally, 5 days a week. L-NAME was given by gavage twice a week on the day of immunization and the day after. Indomethacin was given by gavage 48 h after vaccination at a dose of 0.33 mg/kg. Immunization was performed by intraperitoneal administration on day 10 and day 17 using BN7005-H1D2 cells transfected with IL-18 or a mixture of IL-18 and IL-12 transfectants (2-3×10^6 viable cells per rat).
Wild-type (BN7005-H1D2) colon cancer cells (1×10^5 cells) were inoculated intrahepatically and CA4P drug treatment (2 and 5 mg/kg) began daily when the tumors were macroscopically visible. On day 10 and 17, vaccinations were administered intraperitoneally using […] cells transfected with IL-18 transfected cells or mixtures of IL-18 and IL-12 transfected cells (2-3×10^6 viable cells per rat). L-NAME and Indomethacin were also administered by gavage 48 h after vaccination at a dose of 0.33 mg/kg.

Where [1] appears, read: CA4-P 2 mg/kg alone, no L-NAME, no immunization.
Setting [2] is: CA4-P 2 mg/kg i.p. 5 days a week, no L-NAME, with immunization, phosphate disodium salt.
The mark [3] stands for this setting: CA4-P 2 mg/kg, with L-NAME gavage, with immunization.
Where [4] appears, read: CA4-P 5 mg/kg, with L-NAME gavage, with immunization, phosphate disodium salt.

Values joined by “and” are separate entries in the source; they are usually repeats but may differ in a detail not shown here. Identical values can stand only once.

Regarding `COc1ccc(/C=C\c2cc(OC)c(OC)c(OC)c2)cc1OP(=O)([O-])[O-].[Na+].[Na+]` [CA4P, CA4 phosphate disodium salt], the “Tumor volume after 4 weeks, Mean” value is 3834 mm^3 under setting [1]; 3918 mm^3 and 5755 mm^3 and 5135 mm^3 and 3698 mm^3 under setting [2]; 5064 mm^3 under setting [3]; 512 mm^3 and 561 mm^3 under setting [4]. Further, the “Tumor volume after 4 weeks, Median” value was 4037 mm^3 under setting [1]; 3780 mm^3 and 6195 mm^3 and 4275 mm^3 and 3393 mm^3 under setting [2]; 2867 mm^3 and 1463 mm^3 and 1962 mm^3 (CA4-P 2 mg/kg, with L-NAME (+Indomethacin 0.33 mg/kg), with immunization, phosphate disodium salt); 4792 mm^3 under setting [3]; 426 mm^3 and 367 mm^3 under setting [4].
